Drawing on patent US11339156B2, “3-(1H-pyrazol-4-yl)pyridine allosteric modulators of the M4 muscarinic acetylcholine receptor” (Merck Sharp & Dohme Corp., priority 2017, dated 2022), this text covers EC50 for 25 molecules.

In the assay the target is T1, human M4 muscarinic acetylcholine receptor (Homo sapiens, UniProt P08173).
T1 construct: expressed in transfected cells
T1 sequence (P08173 1-479): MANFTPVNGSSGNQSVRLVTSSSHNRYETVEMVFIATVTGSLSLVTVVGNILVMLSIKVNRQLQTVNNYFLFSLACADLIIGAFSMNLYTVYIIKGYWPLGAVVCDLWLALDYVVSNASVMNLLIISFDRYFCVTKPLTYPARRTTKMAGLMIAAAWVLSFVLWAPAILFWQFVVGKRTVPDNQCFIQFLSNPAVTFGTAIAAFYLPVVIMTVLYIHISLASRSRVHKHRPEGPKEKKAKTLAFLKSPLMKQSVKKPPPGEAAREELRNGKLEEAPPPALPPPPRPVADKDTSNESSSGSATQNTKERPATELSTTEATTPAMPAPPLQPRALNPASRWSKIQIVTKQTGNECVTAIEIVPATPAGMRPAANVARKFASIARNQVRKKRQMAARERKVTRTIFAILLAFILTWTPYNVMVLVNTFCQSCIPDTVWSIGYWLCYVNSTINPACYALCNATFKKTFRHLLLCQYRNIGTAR
The assay is described as follows: human FLIPR-based M4 PAM assay (CHO-K1 cells with human M4 receptor and Gαqi5, calcium dye fluorescence). The assay is classed as cell-based. As to conditions: inflection point of 4 parameter logistic fit; acetylcholine added at 20% of maximum response; read-out: M4PAM IP. On the procedure:
In a typical experiment the M4 muscarinic acetylcholine receptor modulating activity of the compounds of the present invention was determined in accordance with the following experimental method. CHO-K1 cells stably transfected with human M4 receptor and chimeric G-protein Gαqi5 (Coward P, et al., Analytical Biochemistry, 270:242-248 (1999)) are thawed from liquid N2 storage, resuspended in growth medium, plated in black, clear bottom 384 well plates, and incubated 16-20 hours at 37° C., 5% CO2. On the day of assay, growth medium is removed, the cells are washed 2 times with wash buffer, and cells are incubated in dye loading buffer at 37° C., 5% CO2 for ˜1 hour. Following dye loading the cell plates are placed in a FLIPR Tetra instrument and while monitoring dye fluorescence (excitation […]), 10 uL of test substance at increasing concentrations is added, and fluorescence values are recorded for 4 min. Next, 10 uL of acetylcholine is added (final concentration calculated so as to achieve 20% of the maximum acetycholine response), and the fluorescence reading is continued for 3.5 min. In some cases, a third addition of acetylcholine (final concentration calculated to achieve 70% of the maximal acetylcholine response) is performed. The resulting dose response curves are fit to a 4 parameter logistic equation and the final result is determined as the inflection point (IP) of the curve
CHO-K1 cells stably transfected with human M4 receptor and chimeric G-protein Gαqi5 are thawed from liquid N2 storage, resuspended in growth medium, plated in black, clear bottom 384 well plates, and incubated 16-20 hours at 37° C., 5% CO2.
On the day of assay, growth medium is removed, the cells are washed 2 times with wash buffer, and cells are incubated in dye loading buffer at 37° C., 5% CO2 for ˜1 h. Following dye loading the cell plates are placed in a FLIPR Tetra instrument and while monitoring dye fluorescence ([…]), 10 uL of test substance at increasing concentrations is added, and fluorescence values are recorded for 4 min. Next, 10 uL of acetylcholine is added (final concentration calculated so as to achieve 20% of the maximum acetycholine response), and the fluorescence reading is continued for 3.5 min. In some cases, a third addition of acetylcholine (final concentration calculated to achieve 70% of the maximal acetylcholine response) is performed.
As to `COCc1nc2cc(-c3nc(C#N)ccc3-c3cnn(CC(C)(C)C)c3)ccn2n1` [Example 105, 5-[1-(2,2-dimethylpropyl)-1H-pyrazol-4-yl]-6-[2-(methoxymethyl)[1,2,4]triazolo[1,5-a]pyridin-7-yl]pyridine-2-carbonitrile], the EC50 was found to be 70.5 nM. With `CC(C)(C)Cn1cc(-c2ccc(C#N)nc2-c2ccn3nc(CO)nc3c2)cn1` [Example 73, 5-[1-(2,2-dimethylpropyl)-1H-pyrazol-4-yl]-6-[2-(hydroxymethyl)[1,2,4]triazolo[1,5-a]pyridin-7-yl]pyridine-2-carbonitrile] the figure was 126 nM.

`CC(C)(C)Cn1cc(-c2ccc(C#N)nc2-c2ccc3cnnn3c2)cn1` [Example 84, 5-[1-(2,2-dimethylpropyl)-1H-pyrazol-4-yl]-6-[1,2,3]triazolo[1,5-a]pyridin-6-ylpyridine-2-carbonitrile]: the EC50 stood at 235 nM. With `Cc1ccc(-c2cnn(CC3(C)CCCCC3)c2)c(-c2ccc3c(C)n[nH]c3c2)n1` [Example 4, 3-methyl-6-(6-methyl-3-{1-[(1-methylcyclohexyl)methyl]-1H-pyrazol-4-yl}pyridin-2-yl)-1H-indazole] the figure was 69.9 nM; with `Cc1ccc(-c2cnn(CC(C)(C)C)c2)c(-c2ccn3cnnc3c2)n1` [Example 71, 7-{3-[1-(2,2-dimethylpropyl)-1H-pyrazol-4-yl]-6-methylpyridin-2-yl}[1,2,4]triazolo[4,3-a]pyridine], 55.8 nM; with `COCc1cn2ccc(-c3nc(C#N)ccc3-c3cnn(CC(C)(C)C)c3)cc2n1` [Example 104, 5-[1-(2,2-dimethylpropyl)-1H-pyrazol-4-yl]-6-[2-(methoxymethyl)imidazo[1,2-a]pyridin-7-yl]pyridine-2-carbonitrile], 44.7 nM. With `COc1ccc(-c2cnn(CC(C)(C)C)c2)c(-c2ccn3cc(C)nc3c2)n1` [Example 85, 7-{3-[1-(2,2-dimethylpropyl)-1H-pyrazol-4-yl]-6-methoxypyridin-2-yl}-2-methylimidazo[1,2-a]pyridine] the figure was 149 nM; with `Cc1ccc(-c2cnn(Cc3ccccc3)c2)c(-c2ccc3c(c2)C(=O)N(CC2CC2)C3)n1` [Example 11, 6-[3-(1-benzyl-1H-pyrazol-4-yl)-6-methylpyridin-2-yl]-2-(cyclopropylmethyl)-2,3-dihydro-1H-isoindol-1-one], 136 nM; with `CC(C)(C)Cn1cc(-c2ccc(C#N)nc2-c2ccn3cc(Cl)nc3c2)cn1` [Example 67, 6-(2-chloroimidazo[1,2-a]pyridin-7-yl)-5-[1-(2,2-dimethylpropyl)-1H-pyrazol-4-yl]pyridine-2-carbonitrile], 17.7 nM. With `CC(C)(C)Cn1ncc(-c2ccc(C#N)nc2-c2ccn3ccnc3c2)c1F` [Example 135, 5-[1-(2,2-dimethylpropyl)-5-fluoro-1H-pyrazol-4-yl]-6-imidazo[1,2-a]pyridin-7-ylpyridine-2-carbonitrile], the EC50 turned out to be 36.5 nM. Regarding `Cc1nnc2cc(-c3nc(C#N)ccc3-c3cnn(CC(C)(C)C)c3)ccn12` [Example 70, 5-[1-(2,2-dimethylpropyl)-1H-pyrazol-4-yl]-6-(3-methyl[1,2,4]triazolo[4,3-a]pyridin-7-yl)pyridine-2-carbonitrile], the EC50 is 102 nM. The figure for `CC(C)CCn1cc(-c2cccnc2-c2ccc3c(c2)C(=O)NC3)cn1` [Example 74, 6-{3-[1-(3-methylbutyl)-1H-pyrazol-4-yl]pyridin-2-yl}-2,3-dihydro-1H-isoindol-1-one] is 337 nM; for `N#Cc1ccc(-c2cnn(CC3CCC3)c2)c(-c2ccn3ccnc3c2)n1` [Example 93, 5-[1-(cyclobutylmethyl)-1H-pyrazol-4-yl]-6-imidazo[1,2-a]pyridin-7-ylpyridine-2-carbonitrile] it is 27.5 nM; for `CN1Cc2ccc(-c3nc(Cl)ccc3-c3cnn(CC4CCCCC4)c3)cc2C1=O` [Example 115, 6-{6-chloro-3-[1-(cyclohexylmethyl)-1H-pyrazol-4-yl]pyridin-2-yl}-2-methyl-2,3-dihydro-1H-isoindol-1-one] it is 31.7 nM. With `CN1Cc2ccc(-c3nc(C#N)ccc3-c3cnn(CC4(C)CC4)c3)cc2C1=O` [Example 50, 5-{1-[(1-methylcyclopropyl)methyl]-1H-pyrazol-4-yl}-6-(2-methyl-3-oxo-2,3-dihydro-1H-isoindol-5-yl)pyridine-2-carbonitrile], the EC50 worked out at 51.2 nM. With `CC(C)(C)Cn1cc(-c2ccc(C#N)nc2-c2ccn3c(Cl)cnc3c2)cn1` [Example 117, 6-(3-chloroimidazo[1,2-a]pyridin-7-yl)-5-(1-neopentyl-1H-pyrazol-4-yl)picolinonitrile] the figure was 33.4 nM. As to `CN1Cc2ccc(-c3nc(C#N)ccc3-c3cnn(CC(C)(C)C(F)F)c3)cc2C1=O` [Example 97, 5-[1-(3,3-difluoro-2,2-dimethylpropyl)-1H-pyrazol-4-yl]-6-(2-methyl-3-oxo-2,3-dihydro-1H-isoindol-5-yl)pyridine-2-carbonitrile], the EC50 worked out at 45 nM. For `Cc1ccc(-c2cnn(CCC(C)(C)F)c2)c(-c2ccc3c(c2)C(=O)NC3)n1` [Example 10, 6-{3-[1-(3-fluoro-3-methylbutyl)-1H-pyrazol-4-yl]-6-methylpyridin-2-yl}-2,3-dihydro-1H-isoindol-1-one], the EC50 came out at 130 nM. The figure for `CC(C)(C)Cn1cc(-c2ccc(C#N)nc2-c2ccn3cc(C(F)F)nc3c2)cn1` [Example 64, 6-[2-(difluoromethyl)imidazo [1,2-a]pyridin-7-yl]-5-[1-(2,2-dimethylpropyl)-1H-pyrazol-4-yl]pyridine-2-carbonitrile] is 14.6 nM; for `CC(C)(C)Cn1cc(-c2ccc(C(F)F)nc2-c2ccn3ccnc3c2)cn1` [Example 98, 7-{6-(difluoromethyl)-3-[1-(2,2-dimethylpropyl)-1H-pyrazol-4-yl]pyridin-2-yl}imidazo[1,2-a]pyridine] it is 40.8 nM. With `N#Cc1ccc(-c2cnn(CCC3CC3)c2)c(-c2ccn3ccnc3c2)n1` [Example 45, 5-[1-(2-cyclopropylethyl)-1H-pyrazol-4-yl]-6-imidazo[1,2-a]pyridin-7-ylpyridine-2-carbonitrile] the figure was 35.6 nM.

On to `Cc1cn2ccc(-c3nc(C#N)ccc3-c3cnn(CC4(C(F)F)CC4)c3)cc2n1` [Example 58, 5-(1-{[1-(difluoromethyl)cyclo-propyl]methyl}-1H-pyrazol-4-yl)-6-(2-methylimidazo[1,2-a]pyridin-7-yl)pyridine-2-carbonitrile], for which the EC50 was 49.1 nM.

Consider `CC(C)(C)Cn1cc(-c2ccc(C3CC3)nc2-c2ccn3ccnc3c2)cn1` [Example 99, 7-{6-cyclopropyl-3-[1-(2,2-dimethylpropyl)-1H-pyrazol-4-yl]pyridin-2-yl}imidazo[1,2-a]pyridine], for which the EC50 came out at 152 nM. With `Cn1nnc2cc(-c3nc(C#N)ccc3-c3cnn(CC(C)(C)C)c3)ccc21` [Example 68, 5-[1-(2,2-dimethylpropyl)-1H-pyrazol-4-yl]-6-(1-methyl-1H-benzotriazol-5-yl)pyridine-2-carbonitrile] the figure was 55.8 nM; with `Fc1cc(-c2cnn(CC3(C(F)(F)F)CC3)c2)c(-c2ccn3ccnc3c2)nc1F` [Example 53, 7-(5,6-difluoro-3-(1-((1-(trifluoromethyl)cyclopropyl)methyl)-1H-pyrazol-4-yl)pyridin-2-yl)imidazo[1,2-a]pyridine], 234 nM.
